From US8158647B2, “Substituted pyrrolopyridines and pyrazolopyridines as kinase modulators” (SGX Pharmaceuticals, Inc., priority 2007, dated 2012) come the findings set out here.

In one test the target is T1, ABL T315I BAF3 cells (Homo sapiens, UniProt P00519, T315I, cells depend on it).
T1 construct: ABL T315I BAF3; fused on or other part: P11274 (Breakpoint cluster region protein)
The test can be described thus: 96-well XTT cell survival assay, BaF3 ABL T315I. The class given is cell-based. The note with it: 72 hours, read-out: CELL BIO ABL T315I BAF3 XTT (IC50). The protocol: (§1) MV4-11 and THP cells were maintained in Iscove's Modified Dulbecco's Medium supplemented with 10% fetal bovine serum (FBS) and penicillin/streptomycin, Ba/F3 cells were maintained in RPMI 1640 supplemented with 10% FBS, penicillin/streptomycin and 5 ng/ml recombinant mouse IL-3.
(§2) Compounds were tested in the following assays in duplicate.
(§3) 96-well XTT assay: Cells (e.g. BaF3 315I, M3511, or E255K cells) were grown in growth media containing various concentrations of compounds (duplicates) on a 96-well plate for 72 hours at 37° C. The starting cell number was 5000-8000 cells per well and volume was 120 μl. At the end of the 72-hour incubation, 40 μl of XTT labeling mixture (50:1 solution of sodium 3′-[1-(phenylamino-carbonyl)-3,4-tetrazolium]-bis(4-methoxy-6-nitro) benzene sulfonic acid hydrate and Electron-coupling reagent: PMS (N-methyl dibenzopyrazine methyl sulfate) were added to each well of the plate. After an additional 2-6 hours of incubation at 37° C., the absorbance reading at 405 nm with background correction at 650 nm was measured with a spectrophotometer.

In the next test the target is T2, ABL P210WT BAF3 cells (Homo sapiens, UniProt P00519).
T2 construct: ABL P210WT BAF3; fused on or other part: P11274 (Breakpoint cluster region protein)
The experiment in a line: 96-well XTT cell survival assay, BaF3 ABL P210WT. Format: cell-based. The following applies: ABL P210 WT, 72 hours, read-out: CELL BIO ABL P210WT BAF3 XTT (IC50). The protocol: as §1, §2, §3

The target in test [1] is T3, purified and unphosphorylated T315I Abl kinase domain (ABL_T315I_0P) (Mus musculus, UniProt P00520, T315I).
T3 construct: The c-Abl T3151 KD (kinase domain) was purified as follows; Met-Ser-Leu (vector-derived residues) (N); made in house; host or cells: E. coli BL21(DE3) strains (Codon+RIL, or pSA0145 for the lambda phosphatase co-expression plasmid)
T3 sequence (P00520 242-493 T315I limits assumed): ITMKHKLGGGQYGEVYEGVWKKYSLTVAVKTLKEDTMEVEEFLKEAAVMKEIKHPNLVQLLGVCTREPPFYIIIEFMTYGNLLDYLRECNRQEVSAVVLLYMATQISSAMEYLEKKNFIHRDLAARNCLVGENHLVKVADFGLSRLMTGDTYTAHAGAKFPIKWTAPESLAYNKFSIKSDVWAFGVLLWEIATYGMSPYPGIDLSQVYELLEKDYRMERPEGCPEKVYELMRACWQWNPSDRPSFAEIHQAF
The test can be described thus: c-Abl T315I (unphosphorylated kinase domain) pyruvate kinase/lactate dehydrogenase coupled enzyme assay. The class given is biochemical. The note with it: 10 μM ATP. From the text: Although the first of these examples uses the kinase domain of a mutant form of Abl T315I (“Abl T315I KD”), the kinase assays may use various forms of mutant and wild type enzymes, including, for example, the entire protein, the kinase domain, or a portion thereof (e.g. Abl Y393F). The kinases used in the assays may also be of varying phosphorylation states. In the c-Abl example, a mutant kinase at a zero phosphorylation state was used.
c-Abl Pyruvate Kinase/Lactate Dehydrogenase Coupled Enzyme Assay
In the c-Abl Pyruvate Kinase (PK)/Lactate Dehydrogenase (LDH) Coupled Assay the protein kinase dependant phosphorylation of a substrate peptide was coupled to the oxidation of NADH. The oxidation of NADH to NAD+ was detected by monitoring a decrease in absorbance at 340 nm.
Materials: Abl substrate peptide=EAIYAAPFAKKK-OH (SEQ ID NO: 1) (Biopeptide, San Diego, Calif.); […]NADH (Sigma Cat#N-8129, FW=709.4); 2M MgCl2; 1M HEPES buffer, pH 7.5; Phosphoenolpyruvate (PEP) (Sigma Cat#P-7002, FW=234); Lactate dehydrogenase (LDH) (Worthington Biochemical Cat#2756); Pyruvate Kinase (PK) (Sigma Cat#P-9136); ATP (Sigma Cat#A-3377, FW=551); Greiner 384-well UV star plate; and purified and unphosphorylated T3151 Abl kinase domain.
Stock Solutions: 10 mM NADH (7.09 mg/ml in miliQH2O) made fresh daily; 10 mM Abl substrate peptide (13.4 mg/ml in miliQH2O) stored at −20° C.; 100 mM HEPES buffer, pH 7.5 (5 ml 1M stock+45 ml miliQH2O); 100mM MgCl2 (5 ml 2M MgCl2+95 ml dH2O); 100 mM PEP (23.4 mg/ml in dH2O) stored at −20° C.; 10mM ATP (5.51 mg/ml in dH2O) stored at −20° C. (diluted 50 μl into total of 10 ml miliQH2O daily=50 μM ATP working stock); 1000 U/ml PK (U/mg varies with lot) flash-frozen under liquid N2 and stored at −80° C.; and 1000 U/ml LDH (U/mg varies with lot) flash-frozen under liquid N2 and stored at −80° C.
Standard Assay Setup for 384-well format (50 μl reaction): 300 μM NADH; 10 mM MgCl2; 2 mM PEP; 45 U/ml PK; 60 U/ml LDH; 200 μM Abl substrate peptide; 2.5 μl test compound (in DMSO); 2 μg/ml Abl kinase domain; 10 μM ATP; 100 mM HEPES buffer. Positive controls contained DMSO with no test compound. Negative controls contained 5 μl of 0.5M EDTA (50 mM in the assay). The dephosphorylated form of the c-Abl T315I mutant was used in the biochemical screening assays. The kinase reaction was initiated at time t=0 by the addition of ATP.
Activity was measured by following the time-dependent loss of NADH by absorbance spectroscopy at 340 nm. The linear portion of the resulting progress curve was then analyzed by linear regression to get the activity in absorbance units/time, reported as the slope of that best fit line (moles/unit time can be calculated from using molar extinction coefficient for NADH at 340 nm, 6250M^−1 cm^−1).
Screening data was evaluated using the equation: Z′=1-[3*(σ++σ−)/|μ+−μ−|] (Zhang, et al., 1999 J Biomol Screening 4(2) 67-73), where μ denotes the mean and σ the standard deviation. The subscript designates positive or negative controls. The Z′ score for a robust screening assay should be ≧0.50. The typical threshold=μ+−3*σ+−. Any value that falls below the threshold was designated a “hit”.
Dose response was analyzed using the equation: y=min+{(max−min)/(1+10^[compound]−logIC50)}, where y is the observed initial slope, max=the slope in the absence of inhibitor, min=the slope at infinite inhibitor, and the IC50 is the [compound] that corresponds to ½ the total observed amplitude (Amplitude=max−min).
To measure modulation, activation, or inhibition of Abl KD, a test compound was added to the assay at a range of concentrations. Inhibitors may inhibit Abl KD activity at an IC50 in the micromolar range, the nanomolar range, or, for example, in the subnanomolar range.
An open-reading frame for c-Abl was amplified from a Mus musculus (mouse) cDNA library prepared from freshly harvested mouse liver using a commercially available kit (Invitrogen) by PCR using the following primers: […]
The c-Abl T3151 KD (kinase domain) was purified as follows. […]

For the compound `COc1ccccc1-c1c[nH]c2ncc(-c3cnc(N)c(C(=O)N4CCOCC4)c3)c(Cl)c12` [{2-Amino-5-[4-chloro-3-(2-methoxy-phenyl)-1H-pyrrolo[2,3-b]pyridin-5-yl]-pyridin-3-yl}-morpholin-4-yl-methanone], the GI50 at ABL T315I BAF3 cells and at ABL P210WT BAF3 cells was 100 to 1000 nM in each case. For the same compound, the “ABL_T315I_0P (IC50)” value in test [1] is given as “D (<0.01 μM)”.
Take `CNc1ncccc1-c1c[nH]c2ncc(-c3cncc(C(O)C(=O)N(C)C)c3)c(Cl)c12` (stereo not drawn): the GI50 on ABL T315I BAF3 cells and on ABL P210WT BAF3 cells was above 1000 nM in each case. Besides, the “ABL_T315I_0P (IC50)” value in test [1] was “C (0.1-0.01 μM)”.
Consider `COc1ccccc1-c1c[nH]c2ncc(-c3cncc(C(O)C(=O)N(C)C)c3)c(SC)c12` (stereo not drawn) [2-Hydroxy-2-{5-[3-(2-methoxy-phenyl)-4-methylsulfanyl-1H-pyrrolo[2,3-b]pyridin-5-yl]-pyridin-3-yl}-N,N-dimethyl-acetamide], for which the GI50 lay within 10 to 100 nM on ABL T315I BAF3 cells and 100 to 1000 nM on ABL P210WT BAF3 cells. In addition, in test [1], the “ABL_T315I_0P (IC50)” value is given as “D (<0.01 μM)”.
The corresponding values for `COc1ccccc1-c1c[nH]c2ncc(-c3cncc(C(O)C(=O)N(C)C)c3)c(C)c12` (stereo not drawn) [2-Hydroxy-2-{5-[3-(2-methoxy-phenyl)-4-methyl-1H-pyrrolo[2,3-b]pyridin-5-yl]-pyridin-3-yl}-N,N-dimethyl-acetamide] are 10 to 100 nM, 10 to 100 nM and “D (<0.01 μM)”.
On the same counts, the results for `OC(c1cncc(-c2cnc3[nH]cc(-c4ccccc4F)c3c2Cl)c1)c1ncco1` (stereo not drawn) [{5-[4-Chloro-3-(2-fluoro-phenyl)-1H-pyrrolo[2,3-b]pyridin-5-yl]-pyridin-3-yl}-oxazol-2-yl-methanol] are 100 to 1000 nM, 100 to 1000 nM and “D (<0.01 μM)”.
The corresponding values for `CNC(=O)c1cncc(-c2cnc3[nH]cc(-c4ccccc4F)c3c2Cl)n1` are above 1000 nM, above 1000 nM and “C (0.1-0.01 μM)”.
With `COc1ccccc1-c1c[nH]c2ncc(-c3cncc(C(O)C(=O)N(C)C)c3)c(C#N)c12` (stereo not drawn) [2-{5-[4-Cyano-3-(2-methoxy-phenyl)-1H-pyrrolo[2,3-b]pyridin-5-yl]-pyridin-3-yl}-2-hydroxy-N,N-dimethyl-acetamide], the GI50 at ABL T315I BAF3 cells and on ABL P210WT BAF3 cells was above 1000 nM throughout. Also, the “ABL_T315I_0P (IC50)” value in test [1] is recorded as “D (<0.01 μM)”.
Regarding `COc1ccccc1-c1c[nH]c2ncc(Br)c(SC)c12` [5-Bromo-3-(2-methoxy-phenyl)-4-methylsulfanyl-1H-pyrrolo[2,3b]pyridine], the GI50 at ABL T315I BAF3 cells and at ABL P210WT BAF3 cells was above 1000 nM in each case. Also, the “ABL_T315I_0P (IC50)” value in test [1] is “B (1.0-0.1 μM)”.
Take `CN(C)C1CCN(C(=O)c2cc(-c3cnc4[nH]cc(-c5cc(F)ccc5F)c4c3Cl)cnc2N)C1` (stereo not drawn) [{2-Amino-5-[4-chloro-3-(2,5-difluoro-phenyl)-1H-pyrrolo[2,3-b]pyridin-5-yl]-pyridin-3-yl}-(3-dimethylamino-pyrrolidin-1-yl)-methanone]: the GI50 on ABL T315I BAF3 cells and at ABL P210WT BAF3 cells was 100 to 1000 nM in each case. Also, the “ABL_T315I_0P (IC50)” value in test [1] was “D (<0.01 μM)”.
In the case of `CN(C)C(=O)C(O)c1cncc(-c2cnc3[nH]cc(-c4ccccc4Cl)c3c2Cl)c1` (stereo not drawn) [2-{5-[4-Chloro-3-(2-chloro-phenyl)-1H-pyrrolo[2,3-b]pyridin-5-yl]-pyridin-3-yl}-2-hydroxy-N,N-dimethyl-acetamide], the GI50 at ABL T315I BAF3 cells and at ABL P210WT BAF3 cells was 100 to 1000 nM each time. Moreover, the “ABL_T315I_0P (IC50)” value in test [1] is “D (<0.01 μM)”.
With `COc1ccc(F)cc1-c1c[nH]c2ncc(-c3cnc(N)c(C(=O)N(C)C)n3)c(Cl)c12` [3-amino-6-[4-chloro-3-(5-fluoro-2-methoxy-phenyl)-1H-pyrrolo[2,3-b]pyridin-5-yl]-pyrazine-2-carboxylic acid dimethylamide], the GI50 on ABL T315I BAF3 cells was 10 to 100 nM; on ABL P210WT BAF3 cells, below 10 nM. In addition, in test [1], the “ABL_T315I_0P (IC50)” value is reported as “D (<0.01 μM)”.
On the same counts, the results for `CNc1c(-c2cncc(C(O)C(=O)N(C)C)c2)cnc2[nH]cc(-c3ccccc3OC)c12` (stereo not drawn) [2-Hydroxy-2-{5-[3-(2-methoxy-phenyl)-4-methylamino-1H-pyrrolo[2,3-b]pyridin-5-yl]-pyridin-3-yl}-N,N-dimethyl-acetamide] are 100 to 1000 nM, 100 to 1000 nM and “D (<0.01 μM)”.
In the case of `OC(c1cncc(-c2cnc3[nH]cc(-c4ccc(F)cc4)c3c2Cl)c1)c1ncccc1F` (stereo not drawn) [{5-[4-Chloro-3-(4-fluoro-phenyl)-1H-pyrrolo[2,3-b]pyridin-5-yl]-pyridin-3-yl}-(3-fluoro-pyridin-2-yl)-methanol], the GI50 at ABL T315I BAF3 cells and at ABL P210WT BAF3 cells was above 1000 nM throughout. Moreover, the “ABL_T315I_0P (IC50)” value in test [1] was “C (0.1-0.01 μM)”.
On to `CN(C)C(=O)c1cc(-c2cnc3[nH]cc(-c4cc[nH]n4)c3c2Cl)cnc1N` [2-Amino-5-[4-chloro-3-(1H-pyrazol-3-yl)-1H-pyrrolo[2,3-b]pyridin-5-yl]-N,N-dimethyl-nicotinamide], for which the GI50 on ABL T315I BAF3 cells and on ABL P210WT BAF3 cells was above 1000 nM each time. Also, the “ABL_T315I_0P (IC50)” value in test [1] is recorded as “C (0.1-0.01 μM)”.
